Results taken from patent US6319902A, “Peptide derivatives having thiazolyl-alanine residue” (Shionogi & Co., Ltd., priority 1999, dated 2001).

Legend:
Assay type in all cases: in vivo
[1] = tested on: Reserpine-induced hypothermia mice; test: Anti-reserpine action after intravenous and intracerebroventicular administration of test compounds; details: for Dose which can increase the average of body temperatures at 1° C. for 180 min in reserpine-induced hypothermia mice, administered intracerebroventicularly: intracerebroventicular, calculated from AUC for 180 min after 0.21 μmol/kg
Method: Anti Recerpine Action After Intravenous and Intracerebroventicular Administration of Test Compounds
Recerpine-induced hypothermia mice (ddY, male) were prepared by the administration of reserpine (3 mg/kg) at 18 hours before test compounds administration. Mice with their body temperature about 25° C. were used in the experiment. Test compounds were solubilized in saline and 0.1 ml (1 μmol/kg) of them were administered intravenously and 0.005 ml (0.21 μmol/kg) of them were administered intracerebroventicularly, respectively. After the administration, rectal temperature was measured at 30, 60, 120, and 180 min. The area under curve (AUC) of the body temperature-time profile was calculated by the general trapezoidal method. In the control experiment, vehicle (saline) was administered to mice intravenously or intracerebroventicularly and the rectal temperature was measured by the same protocol. The effective dose, which can increase the average of body temperatures at 1° C. for 180 min in reserpine-induced hypothermia mice after intravenous or intracerebroventicular administration of the test compounds, is calculated by the following equation: [formula]
Effective dose: Dose which can increase the average of body temperatures at 1° C. for 180 min in reserpine-induced hypothermia mice.
AUC (test compounds): The area under curve (AUC) of the body temperature-time profile for 180 min after intravenous or intracerebroventicular administration of test, compounds was calculated by the general trapezoidal method.
AUC (vehicle): The area under curve (AUC) of the body temperature-time profile for 180 min after intravenous or intracerebroventicular administration of saline was calculated by the general trapezoidal method.

[2] = Change of blood glucose levels after administration of the test compounds to rats; details: for blood glucose level as a percentage compared to the baseline level (vehicle-treated rats = 100%): 50 μmol/kg intravenously
[3] = tested on: Reserpine-induced hypothermia mice; test: Anti-reserpine action after oral administration of test compounds; details: calculated from AUC of body temperature-time profile for 420 min after 10 μmol/kg
Method: Anti-recerpine Action After Oral Administration of Test Compounds
Reserpine-induced hypothemia mice (ddY, male, body weight: 30 to 40 g) were prepared by the subcutaneous administration of reserpine in back side of the […] (3 mg/kg) at 18 hours before test compounds administration. Mice with their body temperature about 25° C. were used in the experiment. Test compounds were solubilized in saline and 0.2 ml (10 μmol/kg) of them were administered by sonde for oral administration. After the administration, rectal temperature was measured at, 30, 60, 120, 180, 240, 300, and […]. The area under curve (AUC) of the body temperature-time profile was calculated by the general trapezoidal method. In the control experiment, vehicle (saline) was administered to mice and the rectal temperature was measured by the same protocol. The effective dose, which can increase the average of body temperature at 1° C. for 420 min in reserpine-induced hypothermia mice after oral administration of the test compounds, is calculated by the following equation: [formula]
Effective dose: Dose which can increase the average of body temperatures at 1° C. for 420 min in reserpine-induced hypothermia mice.
AUC (test compounds): The area under curve (AUC) of the body temperature-time profile for 420 min after oral administration of test compounds was calculated by the general trapezoidal method. […]

With `NC(=O)[C@@H]1CCCN1C(=O)[C@H](Cc1cnc[nH]1)NC(=O)[C@@H]1CCC(=O)N1` [TRH, L-pyroglutamyl-L-histidyl-L-prolineamide] the “Dose which can increase the average of body temperatures at 1° C. for 180 min in reserpine-induced hypothermia mice, administered intracerebroventicularly” value [1] was 0.033 µmol/kg, the “Dose which can increase the average of body temperatures at 1° C. for 180 min in reserpine-induced hypothermia mice, administered intravenously” value ([1]; intravenous, calculated from AUC for 180 min after 1 μmol/kg) was 9.84 µmol/kg and the “blood glucose level as a percentage compared to the baseline level (vehicle-treated rats = 100%)” value ([2]; Time 0 min) was 116.3%. For the same compound, the “blood glucose level as a percentage compared to the baseline level (vehicle-treated rats = 100%)” value ([2]; Time 5 min) was 114.6%, the “blood glucose level as a percentage compared to the baseline level (vehicle-treated rats = 100%)” value ([2]; Time 15 min) was 123.3% and the “blood glucose level as a percentage compared to the baseline level (vehicle-treated rats = 100%)” value ([2]; Time 30 min) was 137.9%. The “blood glucose level as a percentage compared to the baseline level (vehicle-treated rats = 100%)” value ([2]; Time 60 min) was 153.5%, the “blood glucose level as a percentage compared to the baseline level (vehicle-treated rats = 100%)” value ([2]; Time 120 min) was 139.1% and the “blood glucose level as a percentage compared to the baseline level (vehicle-treated rats = 100%)” value ([2]; Time 180 min) was 119.1%. The “blood glucose level as a percentage compared to the baseline level (vehicle-treated rats = 100%)” value ([2]; Time 240 min) was 112.6%, the “blood glucose level as a percentage compared to the baseline level (vehicle-treated rats = 100%)” value ([2]; Time 300 min) was 113.2% and the “blood glucose level as a percentage compared to the baseline level (vehicle-treated rats = 100%)” value ([2]; Time 360 min) was 103.5%. The “blood glucose level as a percentage compared to the baseline level (vehicle-treated rats = 100%)” value ([2]; Time 420 min) was 102.6%, the “blood glucose level as a percentage compared to the baseline level (vehicle-treated rats = 100%)” value ([2]; Time 480 min) was 97.1% and the “acute rise of the blood glucose level and fall by the rebound after administration” value ([2]; result in words) was “acutely raises up the blood glucose level”. The “Dose which can increase the average of body temperatures at 1° C. for 420 min in reserpine-induced hypothermia mice by oral” value [3] was 42.68 µmol/kg.
For `C[C@H]1OC(=O)N[C@H]1C(=O)N[C@@H](Cc1cscn1)C(=O)N1CCC[C@H]1C(N)=O` (mixture of isomers) [Compound I-10, cis-L-5-methyl-2-oxo-oxazolidine-4-yl-carbonyl-3-(4-thiazolyl)-L-alanyl-L-prolineamide], the “Dose which can increase the average of body temperatures at 1° C. for 180 min in reserpine-induced hypothermia mice, administered intracerebroventicularly” value [1] was 0.025 µmol/kg, the “blood glucose level as a percentage compared to the baseline level (vehicle-treated rats = 100%)” value ([2]; Time 0 min) was 107.7% and the “blood glucose level as a percentage compared to the baseline level (vehicle-treated rats = 100%)” value ([2]; Time 5 min) was 119.9%. The “blood glucose level as a percentage compared to the baseline level (vehicle-treated rats = 100%)” value ([2]; Time 15 min) was 104.3%, the “blood glucose level as a percentage compared to the baseline level (vehicle-treated rats = 100%)” value ([2]; Time 30 min) was 109.1% and the “blood glucose level as a percentage compared to the baseline level (vehicle-treated rats = 100%)” value ([2]; Time 60 min) was 112.1%. For the same compound, the “blood glucose level as a percentage compared to the baseline level (vehicle-treated rats = 100%)” value ([2]; Time 120 min) was 126.5%, the “blood glucose level as a percentage compared to the baseline level (vehicle-treated rats = 100%)” value ([2]; Time 180 min) was 105.3% and the “blood glucose level as a percentage compared to the baseline level (vehicle-treated rats = 100%)” value ([2]; Time 240 min) was 110.9%. The “blood glucose level as a percentage compared to the baseline level (vehicle-treated rats = 100%)” value ([2]; Time 300 min) was 104.0%, the “blood glucose level as a percentage compared to the baseline level (vehicle-treated rats = 100%)” value ([2]; Time 360 min) was 100.4% and the “blood glucose level as a percentage compared to the baseline level (vehicle-treated rats = 100%)” value ([2]; Time 420 min) was 102.6%. For the same compound, the “blood glucose level as a percentage compared to the baseline level (vehicle-treated rats = 100%)” value ([2]; Time 480 min) was 111.8%.
